Some test systems named below: ACHN renal; HCT-15 colon; MDA-MB-231 breast; NCI-H226 lung; NCI-H23 lung; NCI/ADR-RES ovarian; SK-MEL-28 melanoma; SK-OV-3 ovarian; SNB-75 CNS; UO-31 renal.
Test in all cases: NCI-60 cell line screen, 48 h

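Cells were grown in 96-well plates and exposed to each compound for 48 hours at five concentrations; endpoints were interpolated linearly between bracketing concentrations, or set to the highest concentration if not reached. Abbreviation: GI50, concentration required for 50% inhibition of growth. TGI: concentration producing complete growth inhibition.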

Consider `CCS(=O)(=O)c1ccc(OC)c(Nc2ncc(-c3cccc(F)c3)o2)c1`, for which the GI50 with ACHN renal was greater than 25 µM; in the experiment on HCT-15 colon it was greater than 25 µM; with MDA-MB-231 breast, greater than 25 µM; with NCI-H226 lung it was 0.513 µM; in the experiment on NCI-H23 lung it was greater than 25 µM; in the experiment with NCI/ADR-RES ovarian, greater than 25 µM. The GI50 was greater than 25 µM in the experiment on SK-MEL-28 melanoma, greater than 25 µM in the experiment with SK-OV-3 ovarian, greater than 10.6 µM in the experiment with SNB-75 CNS and greater than 25 µM in the experiment with UO-31 renal. The TGI in the experiment on ACHN renal, in the experiment on HCT-15 colon, in the experiment with MDA-MB-231 breast, in the experiment on NCI-H226 lung, with NCI-H23 lung and with NCI/ADR-RES ovarian was greater than 25 µM in each case. For the same compound, the TGI with SK-MEL-28 melanoma, in the experiment with SK-OV-3 ovarian, in the experiment on SNB-75 CNS and in the experiment with UO-31 renal was greater than 25 µM each time.
As for `COc1cc(C(=O)n2nc(N)c3c(C)cc(C)nc32)cc(OC)c1OC`, the GI50 with ACHN renal was greater than 100 µM; in the experiment on HCT-15 colon, 1.38 µM; in the experiment with MDA-MB-231 breast it was greater than 100 µM; in the experiment with NCI-H226 lung it was greater than 100 µM; with NCI-H23 lung it was greater than 100 µM; with NCI/ADR-RES ovarian it was 16.3 µM. Besides, the GI50 is greater than 100 µM with SK-MEL-28 melanoma, greater than 82.4 µM with SK-OV-3 ovarian, greater than 38.3 µM with SNB-75 CNS and greater than 100 µM with UO-31 renal. Also, the TGI in the experiment on ACHN renal, with HCT-15 colon, with MDA-MB-231 breast, in the experiment with NCI-H226 lung, in the experiment on NCI-H23 lung and in the experiment with NCI/ADR-RES ovarian was greater than 100 µM in each case. Besides, the TGI with SK-MEL-28 melanoma, in the experiment on SK-OV-3 ovarian, in the experiment on SNB-75 CNS and in the experiment with UO-31 renal was greater than 100 µM each time.
Regarding `O=C1/C(=C/c2ccc(C(F)(F)F)cc2)COc2ccc(O)c(O)c21`, the GI50 in the experiment with ACHN renal was 1.11 µM; in the experiment on HCT-15 colon it was 0.444 µM; with MDA-MB-231 breast it was 1.18 µM; in the experiment with NCI-H226 lung, 1.59 µM; with NCI-H23 lung it was 1.61 µM; in the experiment on NCI/ADR-RES ovarian, 1.8 µM. Besides, the GI50 in the experiment on SK-MEL-28 melanoma was 1.72 µM; in the experiment on SK-OV-3 ovarian it was 2.89 µM; in the experiment with SNB-75 CNS it was 1.39 µM; with UO-31 renal, 0.633 µM. Further, the TGI came to 2.31 µM in the experiment on ACHN renal; 1.93 µM with HCT-15 colon; 2.65 µM in the experiment on MDA-MB-231 breast; 3.09 µM with NCI-H226 lung; 3.21 µM in the experiment on NCI-H23 lung; 6.59 µM with NCI/ADR-RES ovarian. Further, the TGI was found to be 3.15 µM with SK-MEL-28 melanoma, 10.8 µM in the experiment with SK-OV-3 ovarian, 3.02 µM in the experiment on SNB-75 CNS and 1.95 µM with UO-31 renal.
Turning to `COc1cnccc1Nc1nc(-c2nn(Cc3c(F)cc(OCCO)cc3F)c3ccccc23)ncc1OC`, the GI50 in the experiment with ACHN renal was 11.9 µM; in the experiment with HCT-15 colon, 2.63 µM; in the experiment on MDA-MB-231 breast it was 1.53 µM; in the experiment on NCI-H226 lung it was 12.4 µM; with NCI-H23 lung it was 2.25 µM; with NCI/ADR-RES ovarian, 2.97 µM. Also, the GI50 with SK-MEL-28 melanoma was 2.47 µM; in the experiment on SK-OV-3 ovarian it was 19.4 µM; with SNB-75 CNS, 3.76 µM; in the experiment with UO-31 renal it was 1.97 µM. For the same compound, the TGI in the experiment on ACHN renal is 30.5 µM; in the experiment with HCT-15 colon it was greater than 100 µM; with MDA-MB-231 breast it was 4.96 µM; with NCI-H226 lung, 31.9 µM; with NCI-H23 lung, 8.69 µM; in the experiment with NCI/ADR-RES ovarian, 16.5 µM. Further, the TGI in the experiment on SK-MEL-28 melanoma turned out to be 9.66 µM; in the experiment on SK-OV-3 ovarian it was 48 µM; in the experiment with SNB-75 CNS, 18.4 µM; with UO-31 renal, 8.43 µM.
With `COc1ccc(-c2[nH]ncc2Nc2cc(OC)c(OC)c(OC)c2)cc1`, the GI50 in the experiment on ACHN renal is 10.3 µM; in the experiment on HCT-15 colon, 0.702 µM; in the experiment with MDA-MB-231 breast, 3.34 µM; in the experiment on NCI-H226 lung it was 29.1 µM; in the experiment with NCI-H23 lung, 4.04 µM; with NCI/ADR-RES ovarian, 1.86 µM. Further, the GI50 with SK-MEL-28 melanoma is 2.57 µM; in the experiment with SK-OV-3 ovarian, 3.09 µM; in the experiment on SNB-75 CNS it was 1.52 µM; in the experiment with UO-31 renal it was 3.29 µM. Also, the TGI in the experiment on ACHN renal is greater than 100 µM; in the experiment on HCT-15 colon it was greater than 100 µM; with MDA-MB-231 breast it was greater than 100 µM; in the experiment with NCI-H226 lung, greater than 100 µM; in the experiment on NCI-H23 lung it was greater than 100 µM; in the experiment with NCI/ADR-RES ovarian, 25 µM. Also, the TGI is greater than 100 µM in the experiment on SK-MEL-28 melanoma, greater than 77.8 µM in the experiment with SK-OV-3 ovarian, greater than 100 µM in the experiment with SNB-75 CNS and greater than 100 µM in the experiment on UO-31 renal.
On to `CSc1nc(SC)c2c(C)cn(COCCOC(=O)c3ccccc3)c2n1`, for which the TGI with ACHN renal, in the experiment with HCT-15 colon, with MDA-MB-231 breast, in the experiment with NCI-H226 lung, in the experiment with NCI-H23 lung and in the experiment with NCI/ADR-RES ovarian was greater than 100 µM in each case. Also, the TGI in the experiment with SK-MEL-28 melanoma, in the experiment with SK-OV-3 ovarian, with SNB-75 CNS and in the experiment on UO-31 renal was greater than 100 µM each time.
Take `C(=N\Nc1ccc2ccccc2n1)/c1ccccn1`: the GI50 with ACHN renal was 0.367 µM; in the experiment on HCT-15 colon, 0.377 µM; in the experiment on MDA-MB-231 breast, 0.695 µM; with NCI-H226 lung, 0.508 µM; with NCI-H23 lung it was 0.857 µM; in the experiment on NCI/ADR-RES ovarian, 0.345 µM. The GI50 was 1.96 µM in the experiment on SK-MEL-28 melanoma, 0.537 µM in the experiment with SK-OV-3 ovarian, 1.1 µM with SNB-75 CNS and 0.304 µM with UO-31 renal. The TGI is greater than 43.9 µM with ACHN renal; greater than 100 µM in the experiment on HCT-15 colon; greater than 100 µM with MDA-MB-231 breast; 19 µM with NCI-H226 lung; greater than 100 µM in the experiment with NCI-H23 lung; 10.6 µM in the experiment on NCI/ADR-RES ovarian. Further, the TGI is greater than 100 µM with SK-MEL-28 melanoma, greater than 40.5 µM with SK-OV-3 ovarian, 51.2 µM in the experiment on SNB-75 CNS and 2.66 µM with UO-31 renal.
On to `NS(=O)(=O)c1ccc(N=Nc2c[nH]c(=O)c(O)c2)cc1`, for which the TGI with ACHN renal, in the experiment with HCT-15 colon, in the experiment with MDA-MB-231 breast, in the experiment on NCI-H226 lung, in the experiment with NCI-H23 lung and in the experiment with NCI/ADR-RES ovarian was greater than 100 µM throughout. The TGI in the experiment with SK-MEL-28 melanoma, in the experiment on SK-OV-3 ovarian, with SNB-75 CNS and with UO-31 renal was greater than 100 µM throughout.

The values are drawn from PubChem BioAssay (NCI).
